Reference: patent US6958345B2, “2-hydroxymethylcyclopropylidene methylpurines and -pyrimidines as antiviral agents” (The Regents of the University of Michigan, priority 1997, dated 2005)
Read-outs that look alike come from different tables or passages of the source.

What was measured:
HCMV [1] = experiment: HCMV plaque reduction assay in HFF cells; format: cell-based, Human CMV (HCMV); conditions: HFF cells; plaque reduction
Procedure: (§1) Cells and viruses. The routine growth and passage of KB cells was performed in monolayer cultures using minimal essential medium (MEM) with either Hanks salts [MEM(H)] or Earle salts [MEM(E)] supplemented with 10% calf serum. The sodium bicarbonate concentration was varied to meet the buffering capacity required. Cultures of diploid human foreskin fibroblasts (HFF) or MRC-5 cells were grown in medium consisting of MEM(E) with 10% fetal bovine serum. Cells were passaged at 1:2 to 1:10 dilutions according to conventional procedures by using 0.05% trypsin plus 0.02% EDTA in a HEPES buffered salt solution (HBS) (Shipman, C., Jr., Proc. Soc. Exp. Biol. 130:305-310 (1969)) as described previously. Turk, S. R., et al., Antimicrob. Agents Chemother. 31:544-550 (1987). HFF and MRC-5 cells were passaged only at 1:2 dilutions. CEM cells were maintained in suspension culture as detailed previously. Kucera, L. S., et al., AIDS Res. Human Retroviruses 9:307-314 (1993).
(§2) Virological procedures. Stock HCMV was prepared by infecting HFF cells at a multiplicity of infection (m.o.i.) of <0.01 plaque-forming units (p.f.u.) per cell. Cell growth medium was changed every four days until cytopathology was evident in all cells (approximately 21 days). Supernatant fluids were retained as the virus stock. High titer HSV-1 stocks were prepared by infecting KB cells at an m.o.i. of <0.1 as detailed previously. Turk, S. R., et al., Antimicrob. Agents Chemother. 31:544-550 (1987). Virus titers were determined using monolayer cultures of HFF cells for HCMV and monolayer cultures of BSC-1 cells for HSV-1 as described earlier. Prichard, M. N., et al., J. Virol. Methods 28:101-106 (1990). Briefly, HFF or BSC-1 cells were planted as described above in 96-well cluster dishes and incubated overnight at 37° C. in a humidified 3% CO297% air atmosphere. The next day cultures were inoculated with HCMV or HSV-1 and serially diluted 1:3 across the remaining eleven columns of the 96-well plate. Cultures were incubated at 37° C. for 2 hr to permit virus adsorption and then virus inoculum was replaced with 0.2 mL of fresh medium. Cultures were incubated for seven days for HCMV, two or three days for HSV-1, medium was removed, and the cell sheets were stained with 0.1% crystal violet in 20% methanol. Plaques were enumerated under 20-fold magnification in wells having the dilution which gave 5 to 20 plaques per well. Virus titers were calculated according to the following Formula: Titer (p.f.u./mL)=number of plaques×5×3^n; where n represents the nth dilution of the virus used to infect the well in which plaques were enumerated.
(a) HCMV. The effect of compounds on the replication of HCMV has been measured using a plaque reduction assay. HFF cells in 24-well cluster dishes were infected with approximately 100 p.f.u. of HCMV per cm^2 cell sheet using the procedures detailed above. Following virus adsorption, compounds dissolved in growth medium were added to duplicate wells in three to six selected concentrations. Following incubation at 37° C. for 7 to 10 days, cell sheets were fixed, stained with crystal violet and microscopic plaques enumerated as described above. Drug effects were calculated as a percentage of reduction in number of plaques in the presence of each drug concentration compared to the number observed in the absence of drug. Ganciclovir (DHPG) was used as a positive control in all experiments.
(§3) Data Analysis. Dose-response relationships were constructed by linearly regressing the percent inhibition of parameters derived in the preceding sections against log drug concentrations. Fifty-percent inhibitory (IC50) concentrations were calculated from the regression lines. Samples containing positive controls (acyclovir for HSV-1, ganciclovir for HCMV, and 2-acetylpyridine thiosemicarbazone for cytotoxicity) were used in all assays.

HCMV [2] = experiment: HCMV yield reduction assay in HFF cells; format: cell-based, Human CMV (HCMV); conditions: footnote says IC90
Procedure: as §2
The effect of compounds on the replication of HCMV also was measured using a yield reduction assay. HFF cells were planted as described above in 96-well cluster dishes, incubated overnight, medium removed and the cultures were inoculated with HCMV at a m.o.i. of 0.5 to 1 p.f.u. per cell as reported elsewhere. After virus adsorption, inoculum was replaced with 0.2 mL of fresh medium containing test compounds. The first row of 12 wells was left undisturbed and served as virus controls. Each well in the second row received an additional 0.1 mL of medium with test compound at three times the desired final concentration. The contents of the 12 wells were mixed by repeated pipetting and then serially diluted 1:3 along the remaining wells. In this manner, six compounds could be tested in duplicate on a single plate with concentrations from 100 μM to 0.14 μM. Plates were incubated at 37° C. for seven days, subjected to one cycle of freezing and thawing; aliquots from each of the eight wells of a given column were transferred to the first column of a fresh 96-well monolayer culture of HFF cells. Contents were mixed and serially diluted 1:3 across the remaining eleven columns of the secondary plate. Each column of the original primary plate was diluted across a separate plate in this manner. Cultures were incubated, plaques were enumerated, and titers calculated as described above.
as §3

HSV-1 = HSV-1 ELISA in BSC-1 cells; format: cell-based, herpes simplex 1 (HSV-1); conditions: BSC-1 cells; ELISA
Procedure: as §2
(b) HSV-1. An enzyme-linked immunosorbent assay (ELISA) was employed to detect HSV-1. 96-well cluster dishes were planted with BSC-1 cells at 10,000 cells per well, in a total volume of 200 μL per well of MEM(E) plus 10% calf serum. After overnight incubation at 37° C., drug and HSV-1 was added at the rate of 100 PFU/well. ELISA plates were blocked with 200 μL per well of 10% calf serum and 0.05% tween in HBS. After incubation for 30 minutes, the blocking agent was rinsed two times with HBS-T. A 1:400 dilution of AP conjugated rabbit anti-HSV-1 antibody in HBS-F was added. Plates were sealed with adhesive sheet, and incubated on rocker for one hour at 37° C. Plates were developed in the dark with 100 μL per well of substrate solution containing p-nitrophenyl phosphate. Plates were read at […]. Drug effects were calculated as a percentage of the reduction in virus in the presence of each drug concentration compared to the titer obtained in the absence of drug. Acyclovir was used as a positive control in all experiments.
as §3

HFF cells = experiment: Cytotoxicity in stationary HFF cells, microscopic inspection; format: cell-based, human
Procedure: as §1
(§4) Cytotoxicity assays. Two different assays were used to explore cytotoxicity of selected compounds as we have detailed previously. (i) Cytotoxicity produced in stationary HFF cells and in growing CEM cells was determined by microscopic inspection of cells used in plaque and RT assays which were not affected by the virus. Turk, S. R., et al., Antimicrob. Agents Chemother. 31:544-550 (1987). (ii) The effect of compounds during two population doublings of KB cells was determined by crystal violet staining and spectrophotometric quantitation of dye eluted from stained cells. Prichard, M. N., et al., Antimicrob. Agents Chemother. 35:1060-1065 (1991).
as §3

KB cells = experiment: Cytotoxicity in KB cells, growth over two population doublings; format: cell-based
Procedure: as §1, §4, §3

CEM cells = experiment: Cytotoxicity in growing CEM cells, microscopic inspection; format: cell-based
Procedure: as §1, §4, §3

HIV-1 = HIV-1 reverse transcriptase assay in infected CEM cells; format: cell-based, strain IIIB of HIV-1; conditions: reverse transcriptase assay, CEM cells; low moi (footnote c of the 5th table); read-out: HIV-1, IC50
Procedure: (d) HIV-1. Reverse transcriptase (RT) was employed as a marker for HIV-1. This assay measured the presence of HIV in supernatants of CEM cells infected with strain IIIB of HIV-1 by the amount of RT activity. Cells were grown, infected, and incubated in the presence of seven concentrations (one-half log10 dilutions) beginning at 1 or 100 μM of compounds to be assayed. Procedures and the RT assay were performed as detailed previously. Kucera, L. S., et al., AIDS Res. Human Retroviruses 9:307-314 (1993); White, E. L., et al., Antiviral Res. 16:257-266 (1991).

[3] = Toxicity controls: uninfected mice given test compound; format: in vivo; conditions: 5.6, 16.7 and 50 mg/kg i.p. once daily for five days
Procedure: (§5) Compounds 1 (B=adenin-N^9-yl and guanin-N^9-yl) were evaluated in mice infected with murine cytomegalovirus (MCMV). Mice were infected intraperitonealy with sufficient MCMV to produce 90 to 100% mortality. Compounds were administered once daily for five days at doses of 5.6, 16.7 and 50 mg/kg by intraperitoneal injection in a 0.4% suspension of carboxymethylcellulose. Ganciclovir was administered in sterile water at the same doses as a positive control drug. All compounds were administered to separate groups of 15 mice each at 6, 24, and 48 hours after infection with MCMV. Groups of 10 uninfected mice also received test compounds as toxicity controls at the doses listed above.

[4] = test system: murine cytomegalovirus (MCMV); experiment: Mortality of mice infected with murine cytomegalovirus; format: in vivo; conditions: 5.6 mg/kg
Procedure: as §5

SMILES	IC50 (HCMV [1]) [µM]	IC90 (HCMV [2]) [µM]	IC50 (HSV-1) [µM]	IC50 (HFF cells) [µM]	IC50 (KB cells) [µM]	IC50 (CEM cells) [µM]	IC50 (HIV-1) [µM]	IC50 (HFF cells; stationary HFF cells, visual, read-out: Cytotoxicity IC50 HFF (visual)) [µM]	IC50 (KB cells; KB cell growth, read-out: Cytotoxicity IC50 KB (growth)) [µM]	IC50 (CEM cells; growing CEM cells, visual, read-out: Cytotoxicity IC50 CEM (visual)) [µM]	deaths in uninfected mice that received only drug [3]	efficacy against MCMV mortality compared with compound 1 (B=guanin-N^9-yl) [4]
Nc1nc(NC2CC2)c2ncn(C=C3CC3CO)c2n1 (stereo not drawn) [syn-2-Amino-6-cyclopropylamino-N^9-(2-hydroxymethylcyclopropylidenemethyl)purine]	0.4	1	20	> 100	> 100	> 100						
Nc1ccn(C=C2CC2CO)c(=O)n1 (stereo not drawn) [1 (B = cytosine), Example 12, syn-N^1-(2-Hydroxymethylcyclopropylidenemethyl)cytosine]	28	16	> 100	> 100	> 100	> 100						
Nc1nc(N)c2ncn(C=C3CC3CO)c2n1 (stereo not drawn) [1 (B = 2,6-diaminopurine), Example 9, syn-2,6-Diamino-N^9-(2-hydroxymethylcyclopropylidenemethyl)purine]	15	18	> 100	> 100	> 100	> 100						
COC(=O)[C@H](C)NP(=O)(OCC1CC1=Cn1cnc2c(N)ncnc21)Oc1ccccc1 (stereo partly drawn) [3 (B = adenine), Example 13, Methyl Phenylphosphoro-L-alaninate of syn-N^9-(2-Hydroxymethylcyclopropylidenemethyl)adenine]	0.14	0.21	2.5				< 0.14	2.5	0.5	1.1		
Nc1nc(Cl)c2ncn(C=C3CC3CO)c2n1 (stereo not drawn) [syn-2-amino-6-chloro-N^9-(2-hydroxymethylcyclopropylidenemethyl)purine]	5	0.8	40	> 100	> 100							
Nc1nc2c(ncn2C=C2CC2CO)c(=O)[nH]1 (stereo not drawn) [1 (B = guanine), Example 8, syn-N^9-(2-hydroxymethylcyclopropylidenemethyl)guanine]	2	1.8		> 100	> 100	> 100	1.3				No deaths were observed	
Nc1nc(O)c2ncn(COC(CO)CO)c2n1 [ganciclovir, reference compound]												somewhat more effective
